# Experiments:
# Assay in all cases: Herbicidal activity, upland test, post-emergence
# Type in all cases: in vivo
# ABUTH = test system: ABUTH
# Method in brief: (§1)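 Plants were grown in sterilized sandy loam in the greenhouse for 9~14 days, then foliage was sprayed with test compound in acetone/water containing a small amount of Tween 20. After one day, plants were watered regularly for 14 to 21 days and visually scored as percent control (0 = no effect, 100 = complete kill).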
# AESIN = test system: AESIN
# Method in brief: as §1
# DIGSA = test system: DIGSA
# Method in brief: as §1
# GLXMX = test system: GLXMX
# Method in brief: as §1
# PANDI = test system: PANDI
# Method in brief: as §1
# SORBI = test system: SORBI
# Method in brief: as §1
# ZEAMX = test system: ZEAMX
# Method in brief: as §1
smiles,measurement,setting,value
CCC(=NOC)C1=C(O)CC(c2c(C)c(C)c3c(c2C)CC(C)(C)C3)CC1=O (stereo not shown) [Compound 1],"Herbicidal activity, ABUTH",ABUTH; 0.016 kg/ha,0 % inhibition
same,"Herbicidal activity, ABUTH",ABUTH; 0.063 kg/ha,0 % inhibition
same,"Herbicidal activity, ABUTH",ABUTH; 1.000 kg/ha,0 % inhibition
same,"Herbicidal activity, ABUTH",ABUTH; 1.250 kg/ha,0 % inhibition
same,"Herbicidal activity, AESIN",AESIN; 0.016 kg/ha,0 % inhibition
same,"Herbicidal activity, AESIN",AESIN; 0.063 kg/ha,0 % inhibition
same,"Herbicidal activity, AESIN",AESIN; 1.000 kg/ha,0 % inhibition
same,"Herbicidal activity, AESIN",AESIN; 1.250 kg/ha,0 % inhibition
same,"Herbicidal activity, DIGSA",DIGSA; 0.016 kg/ha,70 % inhibition
same,"Herbicidal activity, DIGSA",DIGSA; 0.063 kg/ha,100 % inhibition
same,"Herbicidal activity, DIGSA",DIGSA; 1.000 kg/ha,100 % inhibition
same,"Herbicidal activity, DIGSA",DIGSA; 1.250 kg/ha,100 % inhibition
same,"Herbicidal activity, GLXMX",GLXMX; 0.016 kg/ha,0 % inhibition
same,"Herbicidal activity, GLXMX",GLXMX; 0.063 kg/ha,0 % inhibition
same,"Herbicidal activity, GLXMX",GLXMX; 1.000 kg/ha,60 % inhibition
same,"Herbicidal activity, GLXMX",GLXMX; 1.250 kg/ha,20 % inhibition
same,"Herbicidal activity, PANDI",PANDI; 0.016 kg/ha,40 % inhibition
same,"Herbicidal activity, PANDI",PANDI; 0.063 kg/ha,100 % inhibition
same,"Herbicidal activity, PANDI",PANDI; 1.000 kg/ha,100 % inhibition
same,"Herbicidal activity, PANDI",PANDI; 1.250 kg/ha,100 % inhibition
same,"Herbicidal activity, SORBI",SORBI; 0.016 kg/ha,0 % inhibition
same,"Herbicidal activity, SORBI",SORBI; 0.063 kg/ha,20 % inhibition
same,"Herbicidal activity, SORBI",SORBI; 1.000 kg/ha,100 % inhibition
same,"Herbicidal activity, SORBI",SORBI; 1.250 kg/ha,60 % inhibition
same,"Herbicidal activity, ZEAMX",ZEAMX; 0.016 kg/ha,0 % inhibition
same,"Herbicidal activity, ZEAMX",ZEAMX; 0.063 kg/ha,30 % inhibition
same,"Herbicidal activity, ZEAMX",ZEAMX; 1.000 kg/ha,100 % inhibition
same,"Herbicidal activity, ZEAMX",ZEAMX; 1.250 kg/ha,100 % inhibition
CCON=C(CC)C1=C(O)CC(c2c(C)c(C)c3c(c2C)CC(C)(C)C3)CC1=O (stereo not shown) [Compound 2],"Herbicidal activity, ABUTH",ABUTH; 0.004 kg/ha,0 % inhibition
same,"Herbicidal activity, ABUTH",ABUTH; 0.016 kg/ha,0 % inhibition
same,"Herbicidal activity, ABUTH",ABUTH; 0.063 kg/ha,0 % inhibition
same,"Herbicidal activity, ABUTH",ABUTH; 1.000 kg/ha,0 % inhibition
same,"Herbicidal activity, ABUTH",ABUTH; 1.250 kg/ha,0 % inhibition
same,"Herbicidal activity, AESIN",AESIN; 0.004 kg/ha,0 % inhibition
same,"Herbicidal activity, AESIN",AESIN; 0.016 kg/ha,0 % inhibition
same,"Herbicidal activity, AESIN",AESIN; 0.063 kg/ha,0 % inhibition
same,"Herbicidal activity, AESIN",AESIN; 1.000 kg/ha,0 % inhibition
same,"Herbicidal activity, AESIN",AESIN; 1.250 kg/ha,0 % inhibition
same,"Herbicidal activity, DIGSA",DIGSA; 0.004 kg/ha,100 % inhibition
same,"Herbicidal activity, DIGSA",DIGSA; 0.016 kg/ha,100 % inhibition
same,"Herbicidal activity, DIGSA",DIGSA; 0.063 kg/ha,100 % inhibition
same,"Herbicidal activity, DIGSA",DIGSA; 1.000 kg/ha,100 % inhibition
same,"Herbicidal activity, DIGSA",DIGSA; 1.250 kg/ha,100 % inhibition
same,"Herbicidal activity, GLXMX",GLXMX; 0.004 kg/ha,0 % inhibition
same,"Herbicidal activity, GLXMX",GLXMX; 0.016 kg/ha,0 % inhibition
same,"Herbicidal activity, GLXMX",GLXMX; 0.063 kg/ha,30 % inhibition
same,"Herbicidal activity, GLXMX",GLXMX; 1.000 kg/ha,60 % inhibition
same,"Herbicidal activity, GLXMX",GLXMX; 1.250 kg/ha,40 % inhibition
same,"Herbicidal activity, PANDI",PANDI; 0.004 kg/ha,0 % inhibition
same,"Herbicidal activity, PANDI",PANDI; 0.016 kg/ha,40 % inhibition
same,"Herbicidal activity, PANDI",PANDI; 0.063 kg/ha,100 % inhibition
same,"Herbicidal activity, PANDI",PANDI; 1.000 kg/ha,100 % inhibition
same,"Herbicidal activity, PANDI",PANDI; 1.250 kg/ha,100 % inhibition
same,"Herbicidal activity, SORBI",SORBI; 0.004 kg/ha,0 % inhibition
same,"Herbicidal activity, SORBI",SORBI; 0.016 kg/ha,0 % inhibition
same,"Herbicidal activity, SORBI",SORBI; 0.063 kg/ha,60 % inhibition
same,"Herbicidal activity, SORBI",SORBI; 1.000 kg/ha,100 % inhibition
same,"Herbicidal activity, SORBI",SORBI; 1.250 kg/ha,100 % inhibition
same,"Herbicidal activity, ZEAMX",ZEAMX; 0.004 kg/ha,0 % inhibition
same,"Herbicidal activity, ZEAMX",ZEAMX; 0.016 kg/ha,40 % inhibition
same,"Herbicidal activity, ZEAMX",ZEAMX; 0.063 kg/ha,100 % inhibition
same,"Herbicidal activity, ZEAMX",ZEAMX; 1.000 kg/ha,100 % inhibition
same,"Herbicidal activity, ZEAMX",ZEAMX; 1.250 kg/ha,100 % inhibition
CCCC(=NOC)C1=C(O)CC(c2c(C)c(C)c3c(c2C)CC(C)(C)C3)CC1=O (stereo not shown) [Compound 6],"Herbicidal activity, ABUTH",ABUTH; 0.016 kg/ha,0 % inhibition
same,"Herbicidal activity, ABUTH",ABUTH; 0.063 kg/ha,0 % inhibition
same,"Herbicidal activity, ABUTH",ABUTH; 1.000 kg/ha,30 % inhibition
same,"Herbicidal activity, ABUTH",ABUTH; 1.250 kg/ha,0 % inhibition
same,"Herbicidal activity, AESIN",AESIN; 0.016 kg/ha,0 % inhibition
same,"Herbicidal activity, AESIN",AESIN; 0.063 kg/ha,0 % inhibition
same,"Herbicidal activity, AESIN",AESIN; 1.000 kg/ha,20 % inhibition
same,"Herbicidal activity, AESIN",AESIN; 1.250 kg/ha,0 % inhibition
same,"Herbicidal activity, DIGSA",DIGSA; 0.016 kg/ha,60 % inhibition
same,"Herbicidal activity, DIGSA",DIGSA; 0.063 kg/ha,100 % inhibition
same,"Herbicidal activity, DIGSA",DIGSA; 1.000 kg/ha,100 % inhibition
same,"Herbicidal activity, DIGSA",DIGSA; 1.250 kg/ha,100 % inhibition
same,"Herbicidal activity, GLXMX",GLXMX; 0.016 kg/ha,0 % inhibition
same,"Herbicidal activity, GLXMX",GLXMX; 0.063 kg/ha,0 % inhibition
same,"Herbicidal activity, GLXMX",GLXMX; 1.000 kg/ha,60 % inhibition
same,"Herbicidal activity, GLXMX",GLXMX; 1.250 kg/ha,20 % inhibition
same,"Herbicidal activity, PANDI",PANDI; 0.016 kg/ha,40 % inhibition
same,"Herbicidal activity, PANDI",PANDI; 0.063 kg/ha,100 % inhibition
same,"Herbicidal activity, PANDI",PANDI; 1.000 kg/ha,100 % inhibition
same,"Herbicidal activity, PANDI",PANDI; 1.250 kg/ha,100 % inhibition
same,"Herbicidal activity, SORBI",SORBI; 0.016 kg/ha,0 % inhibition
same,"Herbicidal activity, SORBI",SORBI; 0.063 kg/ha,30 % inhibition
same,"Herbicidal activity, SORBI",SORBI; 1.000 kg/ha,70 % inhibition
same,"Herbicidal activity, SORBI",SORBI; 1.250 kg/ha,50 % inhibition
same,"Herbicidal activity, ZEAMX",ZEAMX; 0.016 kg/ha,0 % inhibition
same,"Herbicidal activity, ZEAMX",ZEAMX; 0.063 kg/ha,60 % inhibition
same,"Herbicidal activity, ZEAMX",ZEAMX; 1.000 kg/ha,100 % inhibition
same,"Herbicidal activity, ZEAMX",ZEAMX; 1.250 kg/ha,100 % inhibition
